Converted amounts (≈) assume the structure as drawn.
Key:
Assay type in all cases: physicochemical
[1] = Solubility of bilastine with α-cyclodextrin (FIG. 2); conditions: aqueous composition with α-cyclodextrin, aqueous with cosolvent or surfactant or cyclodextrin; 5 wt. % α-cyclodextrine instead of HPBCD, pH 4.5, FIG. 2
[2] = Solubility of bilastine and mometasone furoate monohydrate in Kolliphor RH40 formulations (Example 4)
Procedure: To this end, aqueous formulations of Kolliphor RH40 at concentrations 0, 5, 15, 25 and 50 mg/mL and at pH values of 3.7, 4.0, 4.3 and 4.6 were prepared.
Additionally, 0.5 mg/mL of mometasone furoate monohydrate was added to each formulation. The influence of Kolliphor RH40 in bilastine solubility is represented in FIG. 3 in graphs A and B therein. It is shown that, at pH values above 4.3, Kolliphor RH40 at a concentration of 50 mg/mL is insufficient in solubilizing 8 mg/mL of Bilastine (FIG. 3 in graph A therein. In addition, at the concentration of 50 mg/mL and pH of 4.3, Kolliphor RH40 solubilizes more than 10% of the added mometasone furoate monohydrate (FIG. 3 in graph B therein.

[3] = Solubility of bilastine and mometasone furoate monohydrate in formulations with HPBCD 12.5 to 100 mg/mL at pH 4.3, 4.6, 4.9 (Example 3); conditions: for solubility: thermodynamic from solid
Procedure: (§1) HPLC measurements were conducted using a HPLC-HCLASS Chromatographic System with PDA or UV-VIS detector equipped with a Xbridge Shield RP18 3.5 μm […] Column. Mobile phases were ammonium bicarbonate (10 mM pH 9, FLUKA), acetonitrile (FISCHER) and methanol ([…]). Samples were submitted to Acrodisc 32 mm Sryinge Filters with 1.2 μm Supor Membrane, Batch: 18-1077 (PALL).
Six different formulations (with mometasone furoate monohydrate and the rest of excipients as defined in example 2) were prepared (see table below). The six formulations had amounts of HPBCD from 12.5 to 100 mg/mL. Then, in each of them an excessive amount of bilastine was added and the maximum solubility was tested. Furthermore, the percentage of the mometasone furoate dissolved was also tested. All the measurements were conducted at time 0.

[4] = Solubility of bilastine in water; conditions: solubility depends on the pH
[5] = Stability of formulation with Kolliphor RH40 in stability chambers (Example 5); conditions: Kolliphor RH40 50 mg/mL formulation
Procedure: as §1
In the formulation of the present example, sorbitan monooleate acts as an antifoam agent. A batch manufactured according to the table above was prepared, packaged and placed in stability chambers wherein the conditions were 25° C./40% RH and 40° C./25% RH for the duration of 3 months.

[6] = Stability of formulas with HPBCD in stability chambers (Example 6); conditions: HPBCD 25 mg/mL
Procedure: as §1
The three formulas (bilastine at a concentration of 2, 4 and 8 mg/mL) were placed in stability chambers wherein the conditions were 25° C./40% RH and 40° C./25% RH for the duration of 6 or 12 months.

[7] = Mometasone impurities under forced stability conditions, increasing HPBCD (Example 7); conditions: pH 4.6, 50° C., 3 months
Procedure: The percentage of Mometasone was calculated-using the following formula: […]
The percentage of Mometasone degradation products was calculated using the following formula: […]
To evaluate the influence that the cyclodextrin HPBCD had on the impurities of mometasone, formulations similar to the one described in example 1 (see table therein) were studied at pH 4.6 for increasing cyclodextrin concentrations of from 25 to 95 mg/mL. The formulations were submitted to forced stability conditions at 50° C. for a 3-month period. The results were obtained from HPLC measurements.

With `CCOCCn1c(C2CCN(CCc3ccc(C(C)(C)C(=O)O)cc3)CC2)nc2ccccc21` [Bilastine, 2-[4-(2-{4-[1-(2-ethoxyethyl)-1H-benzimidazol-2-yl]-1-piperidinyl}ethyl)phenyl]-2-methylpropanoic acid] the solubility [1] was < 1000 µg/mL, the solubility ([2]; aqueous with cosolvent or surfactant or cyclodextrin, thermodynamic from solid) was < 8000 µg/mL and the solubility ([3]; aqueous with cosolvent or surfactant or cyclodextrin) was ≥ 8000 µg/mL. For the same molecule, the solubility ([3]; pH 4.6, aqueous with cosolvent or surfactant or cyclodextrin) was ~10000 µg/mL (≈ 21.6 mM) and the solubility in water [4] was “slightly soluble”.
In the case of `C[C@@H]1C[C@H]2[C@@H]3CCC4=CC(=O)C=C[C@]4(C)[C@@]3(Cl)[C@@H](O)C[C@]2(C)[C@@]1(OC(=O)c1ccco1)C(=O)CCl.O` [Mometasone Furoate monohydrate, Mometasone furoate monohydrate], the “added mometasone furoate monohydrate solubilized” value ([2]; Kolliphor RH40 50 mg/mL, pH 4.3, 0.5 mg/mL added, FIG. 3 graph B) is reported as “more than 10%”, the “Total degradation products % w/w” value ([5]; 25° C./40% RH, 3 months) is reported as 0.31% w/w and the “Total degradation products % w/w” value ([5]; 40° C./25% RH, 3 months) is reported as 0.33% w/w. For the same molecule, the “Total degradation products % w/w” value ([5]; T0) was 0.15% w/w, the “solubility of mometasone furoate” value ([3]; HPBCD 75 mg/ml (7.5 wt. %), FIG. 1 graph B) was “around 4 mg/ml” and the “Total degradation products % w/w” value ([6]; formula Bilastine 2 mg/mL, 25° C. 40% RH 9 months) was 0.05% w/w. The “Total degradation products % w/w” value ([6]; formula Bilastine 2 mg/mL, 25° C. 40% RH 12 months) was 0.05% w/w, the “Total degradation products % w/w” value ([6]; formula Bilastine 2 mg/mL, 40° C. 25% RH 3 months) was 0.15% w/w and the “Total degradation products % w/w” value ([6]; formula Bilastine 2 mg/mL, 40° C. 25% RH 6 months) was 0.20% w/w. The “Total degradation products % w/w” value ([6]; formula Bilastine 2 mg/mL, T0) was 0.05% w/w, the “Total degradation products % w/w” value ([6]; formula Bilastine 4 mg/mL, 25° C. 40% RH 9 months) was 0.05% w/w and the “Total degradation products % w/w” value ([6]; formula Bilastine 4 mg/mL, 25° C. 40% RH 12 months) was 0.05% w/w. For the same molecule, the “Total degradation products % w/w” value ([6]; formula Bilastine 4 mg/mL, 40° C. 25% RH 3 months) was 0.14% w/w, the “Total degradation products % w/w” value ([6]; formula Bilastine 4 mg/mL, 40° C. 25% RH 6 months) was 0.18% w/w and the “Total degradation products % w/w” value ([6]; formula Bilastine 4 mg/mL, T0) was 0.05% w/w. For the same molecule, the “Total degradation products % w/w” value ([6]; formula Bilastine 8 mg/mL, 25° C. 40% RH 9 months) was 0.05% w/w, the “Total degradation products % w/w” value ([6]; formula Bilastine 8 mg/mL, 25° C. 40% RH 12 months) was 0.05% w/w and the “Total degradation products % w/w” value ([6]; formula Bilastine 8 mg/mL, 40° C. 25% RH 3 months) was 0.14% w/w. For the same molecule, the “Total degradation products % w/w” value ([6]; formula Bilastine 8 mg/mL, 40° C. 25% RH 6 months) was 0.17% w/w, the “Total degradation products % w/w” value ([6]; formula Bilastine 8 mg/mL, T0) was 0.05% w/w and the “Dissolved mometasone (%)” value ([7]; HPBCD 25 mg/mL) was 0.7%. The “Mometasone impurities (%)” value ([7]; HPBCD 25 mg/mL) was 0.2%, the “Dissolved mometasone (%)” value ([7]; HPBCD 50 mg/mL) was 3.0% and the “Mometasone impurities (%)” value ([7]; HPBCD 50 mg/mL) was 0.7%. The “Dissolved mometasone (%)” value ([7]; HPBCD 65 mg/mL) was 5.2%, the “Mometasone impurities (%)” value ([7]; HPBCD 65 mg/mL) was 1.0% and the “Dissolved mometasone (%)” value ([7]; HPBCD 85 mg/mL) was 7.2%. The “Mometasone impurities (%)” value ([7]; HPBCD 85 mg/mL) was 1.3%, the “Dissolved mometasone (%)” value ([7]; HPBCD 95 mg/mL) was 10.5% and the “Mometasone impurities (%)” value ([7]; HPBCD 95 mg/mL) was 1.9%.

Source: patent publication US11642309B2, “Aqueous compositions comprising bilastine and mometasone” (FAES FARMA, S.A., priority 2017, dated 2023)
